Patent US20020019394A1, “Bicyclic sulfonyl amino inhibitors of factor Xa” (priority 2000, published 2002)
pIC50: −log10 of the molar value. Read-outs that look alike come from different tables or passages of the source.

What was measured:
prothrombinase complex = prothrombinase complex (Homo sapiens, UniProt P00742); assay: Prothrombinase inhibition assay, plasma free system; type: biochemical; details: for IC50: read-out: IC50 (nM) Prothrombinase; for pIC50: read-out: IIASE
Protocol: The prothrombinase inhibition assay is performed in a plasma free system with modifications to the method described by Sinha, U. et al., Thromb. […] Specifically, the activity of the prothrombinase complex is determined by measuring the time course of thrombin generation using the p-nitroanilide substrate Chromozym TH. […] Aliquots from the complex-inhibitor mixture are added to prothrombin (1 nM) and Chromozym TH (0.1 mM). […] Eight different concentrations of inhibitor are assayed in duplicate. A standard curve of thrombin generation by an equivalent amount of untreated complex is used for determination of percent inhibition.

factor Xa = factor Xa (Homo sapiens, UniProt P00742); assay: Factor Xa amidolytic assay (chromogenic substrate S-2765)
Chain of factor Xa (P00742 235-488 limits assumed): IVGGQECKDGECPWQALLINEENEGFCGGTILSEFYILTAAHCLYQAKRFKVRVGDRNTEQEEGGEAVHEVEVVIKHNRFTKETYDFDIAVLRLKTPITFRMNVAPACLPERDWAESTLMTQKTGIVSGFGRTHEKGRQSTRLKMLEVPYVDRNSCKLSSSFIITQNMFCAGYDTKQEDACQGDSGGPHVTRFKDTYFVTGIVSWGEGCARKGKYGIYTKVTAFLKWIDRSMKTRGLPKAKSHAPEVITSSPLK
Chain of factor Xa (P00742 41-179 limits assumed): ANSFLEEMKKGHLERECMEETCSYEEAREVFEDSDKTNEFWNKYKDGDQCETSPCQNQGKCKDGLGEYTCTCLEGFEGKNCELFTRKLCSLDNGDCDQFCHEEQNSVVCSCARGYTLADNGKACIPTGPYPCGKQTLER
Protocol: (§2) In the assays for thrombin, prothrombinase and factor Xa, a synthetic chromogenic substrate is added to a solution containing test compound and the enzyme of interest and the residual catalytic activity of that enzyme is determined spectrophotometrically. The IC50 of a compound is determined from the substrate turnover. […] The factor Xa and thrombin assays are performed at room temperature, in 0.02 M Tris.HCl buffer, pH 7.5, containing 0.15 M NaCl.

thrombin = thrombin (Homo sapiens, UniProt P00734); assay: Thrombin amidolytic assay (Chromozym TH)
Protocol: as §2

PLASMIN = target: T1, PLASMIN (Homo sapiens, UniProt P00747); assay: In vitro protease activity assay, plasmin; type: biochemical
T1 construct: PLASMIN
T1 sequence (P00747 581-810 limits assumed, species assumed): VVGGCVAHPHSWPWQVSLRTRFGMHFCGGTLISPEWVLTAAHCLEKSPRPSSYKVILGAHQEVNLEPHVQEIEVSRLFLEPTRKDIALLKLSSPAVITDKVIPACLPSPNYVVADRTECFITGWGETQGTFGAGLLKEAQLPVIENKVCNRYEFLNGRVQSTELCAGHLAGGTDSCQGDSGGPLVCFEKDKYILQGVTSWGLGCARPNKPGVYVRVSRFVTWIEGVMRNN
T1 sequence (P00747 97-580 limits assumed, species assumed): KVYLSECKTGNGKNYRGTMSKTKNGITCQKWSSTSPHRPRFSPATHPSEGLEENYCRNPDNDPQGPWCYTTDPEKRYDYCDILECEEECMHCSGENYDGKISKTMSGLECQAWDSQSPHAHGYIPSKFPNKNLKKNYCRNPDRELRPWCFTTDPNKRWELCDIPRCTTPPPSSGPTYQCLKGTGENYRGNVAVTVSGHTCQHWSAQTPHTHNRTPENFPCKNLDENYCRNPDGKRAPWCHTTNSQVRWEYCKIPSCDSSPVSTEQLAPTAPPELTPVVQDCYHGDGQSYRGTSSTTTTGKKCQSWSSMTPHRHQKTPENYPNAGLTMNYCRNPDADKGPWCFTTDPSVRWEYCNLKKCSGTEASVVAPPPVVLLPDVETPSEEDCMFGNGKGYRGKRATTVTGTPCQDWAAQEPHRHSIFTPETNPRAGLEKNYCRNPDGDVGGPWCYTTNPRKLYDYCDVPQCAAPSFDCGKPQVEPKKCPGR
From the text: (§1) Evaluation of the compounds of this invention is guided by in vitro protease activity assays (see below) and in vivo studies to evaluate antithrombotic efficacy, and effects on hemostasis and hematological parameters (see below).

APC = APC (Homo sapiens, UniProt P04070); assay: In vitro protease activity assay, APC; type: biochemical
Chain of APC (P04070 212-450 limits assumed): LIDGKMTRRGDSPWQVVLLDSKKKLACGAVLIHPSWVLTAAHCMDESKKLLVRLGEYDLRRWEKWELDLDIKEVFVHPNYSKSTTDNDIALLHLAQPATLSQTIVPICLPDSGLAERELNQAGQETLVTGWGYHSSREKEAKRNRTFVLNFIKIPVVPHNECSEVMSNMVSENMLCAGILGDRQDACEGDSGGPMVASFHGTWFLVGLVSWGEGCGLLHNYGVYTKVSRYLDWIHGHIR
Chain of APC (P04070 43-197 limits assumed): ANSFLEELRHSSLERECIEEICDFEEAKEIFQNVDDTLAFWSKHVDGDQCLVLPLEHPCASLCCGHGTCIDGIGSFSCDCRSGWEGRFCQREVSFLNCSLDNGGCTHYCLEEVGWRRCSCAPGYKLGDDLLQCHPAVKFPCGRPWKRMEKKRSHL
From the text: as §1

TPA = TPA (Homo sapiens, UniProt P00750); assay: In vitro protease activity assay, TPA; type: biochemical
Chain of TPA (P00750 36-562, species assumed): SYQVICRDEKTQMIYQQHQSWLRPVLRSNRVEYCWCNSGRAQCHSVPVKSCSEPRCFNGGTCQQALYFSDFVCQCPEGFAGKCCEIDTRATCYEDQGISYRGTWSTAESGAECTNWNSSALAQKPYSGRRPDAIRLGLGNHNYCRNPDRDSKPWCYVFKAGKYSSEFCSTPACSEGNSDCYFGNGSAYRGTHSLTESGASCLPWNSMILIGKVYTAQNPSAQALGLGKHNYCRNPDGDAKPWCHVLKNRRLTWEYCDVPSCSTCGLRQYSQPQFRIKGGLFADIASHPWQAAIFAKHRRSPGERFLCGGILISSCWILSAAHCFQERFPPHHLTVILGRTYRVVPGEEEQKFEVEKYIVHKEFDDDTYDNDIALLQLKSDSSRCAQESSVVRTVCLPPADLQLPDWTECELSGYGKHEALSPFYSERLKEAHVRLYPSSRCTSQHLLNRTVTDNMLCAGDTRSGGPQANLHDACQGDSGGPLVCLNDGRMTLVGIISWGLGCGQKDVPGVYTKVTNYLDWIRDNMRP
From the text: as §1

Chain of prothrombinase complex (P00742 235-488 limits assumed): as the sequence (P00742 235-488 limits assumed) above
Chain of prothrombinase complex (P00742 41-179 limits assumed): as the sequence (P00742 41-179 limits assumed) above
Chain of prothrombinase complex (P12259 29-737 partner limits assumed): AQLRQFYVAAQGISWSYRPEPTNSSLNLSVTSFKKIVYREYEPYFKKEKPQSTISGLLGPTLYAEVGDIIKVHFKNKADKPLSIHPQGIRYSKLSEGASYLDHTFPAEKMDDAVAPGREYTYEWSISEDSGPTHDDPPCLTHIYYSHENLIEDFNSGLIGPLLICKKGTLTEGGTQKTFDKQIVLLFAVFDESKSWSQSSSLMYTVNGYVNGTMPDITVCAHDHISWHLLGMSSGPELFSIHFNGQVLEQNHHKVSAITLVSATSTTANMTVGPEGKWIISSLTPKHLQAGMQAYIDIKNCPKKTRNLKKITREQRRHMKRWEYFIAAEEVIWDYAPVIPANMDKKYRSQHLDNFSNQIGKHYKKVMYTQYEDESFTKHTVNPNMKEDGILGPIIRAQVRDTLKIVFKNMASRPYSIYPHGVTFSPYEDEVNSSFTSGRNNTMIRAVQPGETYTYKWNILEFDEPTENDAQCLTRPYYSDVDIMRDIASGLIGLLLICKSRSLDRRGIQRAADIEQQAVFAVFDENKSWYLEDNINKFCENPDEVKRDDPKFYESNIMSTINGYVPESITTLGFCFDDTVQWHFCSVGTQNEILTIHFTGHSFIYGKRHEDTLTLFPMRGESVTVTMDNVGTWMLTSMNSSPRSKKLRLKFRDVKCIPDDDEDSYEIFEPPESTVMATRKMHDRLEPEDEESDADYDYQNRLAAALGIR
Chain of prothrombinase complex (P12259 1574-2224 partner limits assumed): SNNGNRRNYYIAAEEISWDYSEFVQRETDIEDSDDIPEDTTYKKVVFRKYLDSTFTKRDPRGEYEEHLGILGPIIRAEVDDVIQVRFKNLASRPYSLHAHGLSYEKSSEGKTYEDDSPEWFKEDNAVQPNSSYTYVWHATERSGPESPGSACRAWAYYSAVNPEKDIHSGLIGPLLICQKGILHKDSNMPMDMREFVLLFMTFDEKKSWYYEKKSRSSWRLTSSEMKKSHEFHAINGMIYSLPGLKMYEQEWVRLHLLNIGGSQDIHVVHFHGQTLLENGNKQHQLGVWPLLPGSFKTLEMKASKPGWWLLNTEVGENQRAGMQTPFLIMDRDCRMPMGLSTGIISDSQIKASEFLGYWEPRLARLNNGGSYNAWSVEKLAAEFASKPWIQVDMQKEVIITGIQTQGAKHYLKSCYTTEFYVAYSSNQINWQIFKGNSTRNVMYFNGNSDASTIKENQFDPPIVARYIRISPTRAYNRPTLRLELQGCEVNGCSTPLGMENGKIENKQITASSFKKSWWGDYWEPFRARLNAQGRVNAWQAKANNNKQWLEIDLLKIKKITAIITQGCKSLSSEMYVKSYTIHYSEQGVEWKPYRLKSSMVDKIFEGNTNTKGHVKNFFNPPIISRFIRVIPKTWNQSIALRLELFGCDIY

SMILES	pIC50 (factor Xa)	pIC50 (thrombin)	pIC50 (prothrombinase complex)	other results
CC(=N)N1CCC(Oc2ccc(N(Cc3ccc(-c4cccc(C(=N)N)c4)cc3)S(C)(=O)=O)cc2)CC1 [Compound 12]	7.60	< 4.96	–	IC50 (prothrombinase complex; Table 3): 730 nM
CC(=N)N1CCC(Oc2ccc(N(Cc3cc4cc(C(=N)N)ccc4n3C)S(C)(=O)=O)cc2)CC1 [Compound 15]	7.51	4.93	–	IC50 (prothrombinase complex; Table 4): 66.5 nM
CC(=N)N1CCC(Oc2ccc(N(Cc3cc(C)nn3-c3cccc(C(=N)N)c3)S(C)(=O)=O)cc2)CC1 [Compound 16]	–	< 4.96	–	–
CC(=N)N1CCC(Oc2ccc(N(Cc3cc(C)n(-c4cccc(C(=N)N)c4)n3)S(C)(=O)=O)cc2)CC1 [Compound 17]	–	< 4.96	–	–
CC(=N)N1CCC(Oc2ccc(N(Cc3cc4cc(C(=N)N)ccc4s3)S(=O)(=O)CC(=O)O)cc2)CC1 [Compound 43]	8.46	3.71	–	IC50 (prothrombinase complex; Table 6): 7.6 nM
N=C(N)c1ccc2ccc(CN3c4ccc(OC5CCNCC5)cc4CCS3(=O)=O)cc2c1 [Example 4]	5.93	3.59	5.70	–
NC(=O)c1ccc2ccc(CN3c4ccc(OC5CCNCC5)cc4CCS3(=O)=O)cc2c1 [Example 5]	5.88	–	5.89	–
CS(=O)(=O)N(Cc1ccc2ccc(C(=N)N)cc2c1)c1ccc(C(=O)N2CCCC2C(N)=O)cc1 (stereo not shown) [Example 24]	–	–	–	pIC50 (factor Xa; read-out: XA, Examples 1-26 table): 5.46

Continued by rising pIC50 (thrombin), values first:

pIC50 (factor Xa)	pIC50 (thrombin)	pIC50 (prothrombinase complex)	SMILES	other results
5.39	3.84	–	CS(=O)(=O)N(Cc1ccc2ccc(C(=N)N)cc2c1)c1ccc(C(=O)N2CCC[C@H]2C(N)=O)cc1 [Compound 25]	IC50 (prothrombinase complex; Table 5): 95000 nM
5.99	3.87	4.80	N=C(N)c1ccc2ccc(CN3c4ccc(OC5CCNCC5)cc4C=CS3(=O)=O)cc2c1 [Example 1]	–
–	3.88	–	CC(=N)N1CCC(Oc2ccc(N(Cc3cccc(-c4cccc(C(=N)N)c4)c3)S(C)(=O)=O)cc2)CC1 [Compound 3]	–
8.19	3.93	7.19	CC(=N)N1CCC(Oc2ccc3c(c2)C=CS(=O)(=O)N3Cc2ccc3ccc(C(=N)N)cc3c2)CC1 [Example 2]	pIC50 (PLASMIN): 5.63; pIC50 (APC): 5.73; pIC50 (TPA): 5.80
7.92	3.94	7.91	CC(=N)N1CCC(Oc2ccc3c(c2)CCS(=O)(=O)N3Cc2ccc3ccc(C(=N)N)cc3c2)CC1 [Example 6]	pIC50 (PLASMIN): 5.63; pIC50 (APC): 5.41; pIC50 (TPA): 5.34
8.20	4.02	–	CC(=N)N1CCC(Oc2ccc(N(Cc3ccc4ccc(C(=N)N)cc4c3)S(C)(=O)=O)cc2)CC1 [Compound 2]	IC50 (prothrombinase complex; Table 4): 7 nM
8.44	4.41	–	CC(=N)N1CCC(Oc2ccc(N(Cc3cccc(-c4cccc(C(=N)N)c4)c3)S(=O)(=O)CC(=O)O)cc2)CC1 [Compound 41]	IC50 (prothrombinase complex; Table 6): 6.6 nM
–	4.51	–	CC(=N)N1CCC(Oc2ccc(N(Cc3cc4cc(C(=N)N)ccc4s3)S(C)(=O)=O)cc2)CC1 [Compound 13]	–
7.82	4.61	7.48	N=C(N)c1ccc2ccc(CN3c4ccc(OC5CCN(C(=N)N)CC5)cc4CCS3(=O)=O)cc2c1 [Example 7]	pIC50 (PLASMIN): 5.65; pIC50 (APC): 5.47; pIC50 (TPA): 5.22
7.95	4.78	8.00	N=C(N)c1ccc2ccc(CN3c4ccc(OC5CCN(C(=N)N)CC5)cc4C=CS3(=O)=O)cc2c1 [Example 3]	pIC50 (PLASMIN): 5.94; pIC50 (APC): 6.05; pIC50 (TPA): 5.92
8.04	4.92	–	CCOC(=O)CS(=O)(=O)N(Cc1cc2cc(C(=N)N)ccc2s1)c1ccc(OC2CCN(C(C)=N)CC2)cc1 [Compound 42]	IC50 (prothrombinase complex; Table 6): 8.4 nM
